Data on one compound can be found in paper PMC9738913 (2022).

In this test the test system is d(GC)9 duplex (d(GC)9d(GC)9) (DNA, duplex) GCGCGCGCGCGCGCGCGC
The test can be described thus: fluorescence quenching and UV-vis absorption red shift. The note with it: 100 mM NaCl, 50 mM sodium phosphate; PBS pH 7.4, room temperature; 5 μM proflavine, 2.5 μM DNA; intercalation.

Consider `Nc1ccc2cc3ccc(N)cc3nc2c1`, for which the binding entry is reported as “yes”.
